pIC50: −log10 of the molar value. Like-named read-outs stand apart in the source and are kept apart here.
Tests used:
[1] = biological target: Recombinant human Syk (amino acids 342-635), GST-Syk kinase fusion protein (Homo sapiens (Human), UniProt P43405); experiment: Syk kinase test (Kinase Glo luminescence); type: biochemical; details: for IC50: read-out: IC50 in μM (SYK-Inhibition); for pIC50: Table 1, read-out: SYK-inhibition IC50-value
[2] = biological target: Recombinant human Aurora B (amino acids 1-344) (Homo sapiens (Human), UniProt Q96GD4); experiment: Aurora B kinase test (ADP Glo luminescence); type: biochemical; details: for IC50: read-out: IC50 in μM (AURB-Inhibition); for pIC50: Table 1, read-out: AURB-inhibition IC50-value
Chain of Recombinant human Aurora B (amino acids 1-344) (Q96GD4 whole entry, the tested form may be a part): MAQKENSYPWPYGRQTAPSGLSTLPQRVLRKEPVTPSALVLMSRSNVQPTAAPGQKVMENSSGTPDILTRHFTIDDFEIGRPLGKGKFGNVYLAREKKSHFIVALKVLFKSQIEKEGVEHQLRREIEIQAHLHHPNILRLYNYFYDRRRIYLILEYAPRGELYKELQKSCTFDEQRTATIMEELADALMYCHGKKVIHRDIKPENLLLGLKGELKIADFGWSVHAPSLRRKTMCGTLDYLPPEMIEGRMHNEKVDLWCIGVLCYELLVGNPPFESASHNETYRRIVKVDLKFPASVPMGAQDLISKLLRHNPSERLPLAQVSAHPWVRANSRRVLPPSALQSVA

[3] = biological target: FLT3 (Homo sapiens (Human), UniProt P36888); experiment: FLT3 kinase test (Z'-LYTE); type: biochemical; details: for IC50: read-out: IC50 in μM (FLT3-Inhibition); for pIC50: Table 1, read-out: FLT3-inhibition IC50-value
Chain of FLT3 (P36888 27-993): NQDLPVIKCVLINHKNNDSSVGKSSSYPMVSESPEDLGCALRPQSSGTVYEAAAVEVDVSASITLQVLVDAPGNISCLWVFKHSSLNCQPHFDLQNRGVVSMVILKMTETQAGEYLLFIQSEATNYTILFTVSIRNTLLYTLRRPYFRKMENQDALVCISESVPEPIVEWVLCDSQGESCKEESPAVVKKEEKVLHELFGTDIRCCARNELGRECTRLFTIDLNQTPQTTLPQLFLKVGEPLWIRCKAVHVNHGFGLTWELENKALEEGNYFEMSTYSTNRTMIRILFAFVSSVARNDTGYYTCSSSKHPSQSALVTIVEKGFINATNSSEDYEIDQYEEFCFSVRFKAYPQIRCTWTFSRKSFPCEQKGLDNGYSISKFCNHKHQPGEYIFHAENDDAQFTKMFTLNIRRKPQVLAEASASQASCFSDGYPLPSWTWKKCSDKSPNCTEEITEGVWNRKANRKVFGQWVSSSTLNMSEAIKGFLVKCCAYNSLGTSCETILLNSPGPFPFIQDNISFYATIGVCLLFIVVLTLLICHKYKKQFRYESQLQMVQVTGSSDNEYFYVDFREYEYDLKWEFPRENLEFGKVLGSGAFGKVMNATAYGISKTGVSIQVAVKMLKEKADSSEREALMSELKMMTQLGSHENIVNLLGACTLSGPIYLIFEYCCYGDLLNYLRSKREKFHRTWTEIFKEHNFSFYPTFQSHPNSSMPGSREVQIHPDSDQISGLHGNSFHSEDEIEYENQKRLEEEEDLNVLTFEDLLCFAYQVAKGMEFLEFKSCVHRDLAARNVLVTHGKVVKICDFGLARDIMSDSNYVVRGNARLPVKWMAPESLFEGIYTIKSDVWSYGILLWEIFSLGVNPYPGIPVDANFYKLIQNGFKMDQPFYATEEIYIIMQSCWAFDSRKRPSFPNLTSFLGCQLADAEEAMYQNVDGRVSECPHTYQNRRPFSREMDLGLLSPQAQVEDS
Procedure, shortened: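 Z'-LYTE FRET format; kinase reaction started with ATP, run 1 h at room temperature, then 1 h development before stop reagent. Controls without compound, without kinase, and phosphopeptide as 100% phosphorylation reference; values reported in M.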

[4] = biological target: Human GSK3beta (Homo sapiens (Human), UniProt P49841); experiment: GSK 3beta kinase test (Z'-LYTE); type: biochemical; details: read-out: IC50 in μM (GSK3beta-Inhibition)
Chain of Human GSK3beta (P49841 whole entry): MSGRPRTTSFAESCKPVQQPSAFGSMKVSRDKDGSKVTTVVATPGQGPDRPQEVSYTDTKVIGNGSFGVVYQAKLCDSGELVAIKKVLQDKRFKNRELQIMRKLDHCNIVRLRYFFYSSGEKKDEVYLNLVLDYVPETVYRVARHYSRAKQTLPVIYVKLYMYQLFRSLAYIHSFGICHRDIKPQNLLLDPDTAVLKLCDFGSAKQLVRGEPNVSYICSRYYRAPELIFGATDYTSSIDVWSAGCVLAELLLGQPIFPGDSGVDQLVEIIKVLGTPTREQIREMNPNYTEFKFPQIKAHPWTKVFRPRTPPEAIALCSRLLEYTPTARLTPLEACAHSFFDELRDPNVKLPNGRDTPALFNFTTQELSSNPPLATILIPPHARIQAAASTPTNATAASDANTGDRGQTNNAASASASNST
Experimental: Human GSK3beta (expressed and prified from SF21 cells) is obtained from the University Dundee/Scotland (Dr. James Hastie—Dept. of Biochemistry) in 50 mM Tris (pH7.5); 150 mM NaCl; 0.1 mM EGTA, 270 mM Succrose, 0.1% β-mercaptoethanol, 1 mM benzamidine, 0.2 mM PMSF; sequence see below). The enzyme is diluted to 3.56 μM (168 μg/ml) in enzyme dilution buffer and 6 μl aliquots are stored at −80° C.
The activity of GSK3 kinase protein is measured using the Z′-LYTETM assay technology from Invitrogen (# PV3324).
The assay is performed in 384 black plates from Corning (#3676) in a final volume of 10 μl by adding 5 μl of kinase peptide mix and 2.5 μl of compound dilution. The reaction is started by addition of 2.5 μl of the 4×ATP solution.
Positive controls are reaction mixtures containing no test compound; negative controls (blanks) are reaction mixtures containing no ATP. As a further control, the phosphopeptide solution is added to wells without kinase and without ATP (=100% phosphorylation control).
The non inhibited kinase reaction will result in a phosphorylation corresponding to 20%-30% of the phosphorylation control.
The reaction is performed 1 h at room temperature. After 1h 5 μl of the development solution is added. After a further incubation for 1 h at room temperature 5 μl of the stop reagent is added. Finally the plates are read on a Flex Station II 384 (Molecular Devices).
The output text file is evaluated in an “MS-Excel—VB-Makro” and “GraphPadPrism” (Version 5) (GraphPad Software Inc.) is used to calculate the results. Data for the inhibition of GSK3beta are reported in M. data for the inhibition of the protease are reported in % CTL.

[5] = Human liver microsomal stability test; type: in vitro ADME; details: human liver microsomes
Experimental: The metabolic degradation for a specific SYK-inhibitor is performed at 37° C. with pooled human liver microsomes (human liver microsomes are commercially available as “BD UltraPool™” by Corning Life Sciences, Fogostraat 12, 1060 LJ Amsterdam, The Netherlands). The final incubation volume of 100 μl per time point contains TRIS buffer pH 7.6 at RT (0.1 M), magnesium chloride (5 mM), microsomal protein (1 mg/ml) and the test compound at a final concentration of 1 μM.
Following a short preincubation period at 37° C., the reaction is initiated by addition of beta-nicotinamide adenine dinucleotide phosphate in its reduced form (NADPH, 1 mM) and terminated by transfering an aliquot into solvent after different time points. Additionally, the NADPH-independent degradation is monitored in incubations without NADPH, terminated at the last time point.
The quenched (terminated) incubations are then pelleted by centrifugation (10000 g, 5 min).
An aliquot of the supernatant is assayed by LC-MS/MS for the remaining amount of parent compound. The half-life (t1/2 INVITRO) is determined by the slope of the semilogarithmic plot of the concentration-time profile.
The intrinsic clearance (CL_[…]) is calculated by considering the amount of protein in the incubation: CL_[…][μl/min/mg protein]=(Ln 2/(t1/2 INVITRO[min]*protein content[mg/ml]))*1000
The protein content [mg/ml] was determined with the “Bicinchoninic Acid Kit” of Sigma Aldrich (commercially available).
The upscaled intrinsic Clearance (CL_UP_INT) is calculated by considering the liver weight [g liver/kg body weight] and the microsomal recovery [mg protein/g liver]: CL_UP_INT[ml/min/kg]=0.001*CL_[…]*liver weight*microsomal recovery • with microsomal recovery=45 mg protein/g liver • with liver weight=25.7 g liver/kg body weight
The percent hepatic blood flow (% Qh) is finally calculated by considering the human liver blood flow Q [ml/min/kg]: % Qh[%]=((Q*CL_UP_INT)/(Q+CL_UP_INT)/Q)*100 • with liver blood flow (Q)=20.7 ml/min/kg.

IC50 [1]	IC50 [2]	IC50 [3]	IC50 [4]	microsomal stability Cl [% Qh] ([5]; Qh = liver blood flow)	pIC50 [1]	pIC50 [2]	pIC50 [3]	IC50 ([1]; Table 2a)	IC50 ([2]; Table 2a)	IC50 ([3]; Table 2a)	IC50 ([4]; Table 2a)	microsomal stability Cl [% Qh] ([5]; test compound 1 μM, Table 2a)	SMILES
0.002 µM	0.46 µM	0.321 µM	6.82 µM	49 % Qh	–	–	–	–	–	–	–	–	Cc1nc2ccc(-c3cc(O[C@H](C)[C@H]4CNC(=O)C4)c4cccnc4c3)cc2s1 [85 of WO 2013/014060]
0.013 µM	2.63 µM	2.27 µM	> 10 µM	54 % Qh	–	–	–	–	–	–	–	–	COc1cc(-c2cc(O[C@H](C)[C@H]3CNC(=O)C3)c3cccnc3c2)ccc1C(F)(F)F [102 of WO 2013/014060]
0.001 µM	0.479 µM	0.309 µM	> 10 µM	64 % Qh	–	–	–	–	–	–	–	–	Cc1nc2cc(-c3cc(O[C@H](C)[C@H]4CNC(=O)C4)c4cccnc4c3)ccc2n1C [105 of WO 2013/014060]
0.009 µM	1.82 µM	1.76 µM	> 10 µM	38 % Qh	–	–	–	–	–	–	–	–	Cc1nc(C)c2cc(-c3cc(O[C@H](C)[C@H]4CNC(=O)C4)c4cccnc4c3)ccc2n1 [107 of WO 2013/014060]
0.001 µM	0.26 µM	0.33 µM	> 10 µM	41 % Qh	–	–	–	–	–	–	–	–	Cc1nc2cc(-c3cc(O[C@H](C)[C@H]4CNC(=O)C4)c4cccnc4c3)ccc2[nH]1 [109 of WO 2013/014060]
0.016 µM	> 50 µM	3.99 µM	> 10 µM	<23 % Qh	7.80	< 4.30	5.40	–	–	–	–	–	COc1ccc(-c2cc3nn(C)cc3c(O[C@H](C)[C@H]3CNC(=O)C3)n2)cc1OC [Example 1, (4R)-4-[(1R)-1-[6-(3,4-Dimethoxyphenyl)-2-methyl-pyrazolo[4,3-c]pyridin-4-yl]oxyethyl]pyrrolidin-2-one]
–	–	–	–	–	7.84	< 4.30	4.83	0.0144 µM	> 50 µM	14.8 µM	> 10 µM	<23 % Qh	C[C@@H](Oc1nc(-c2cnn(C(C)(C)C)c2)cc2nn(C)cc12)[C@H]1CNC(=O)C1 [Example 2, (4R)-4-[(1R)-1-[6-(1-tert-Butylpyrazol-4-yl)-2-methyl-pyrazolo[4,3-c]pyridin-4-yl]oxyethyl]pyrrolidin-2-one]
–	–	–	–	–	8.34	< 4.30	4.87	0.0046 µM	> 50 µM	13.4 µM	> 10 µM	<23 % Qh	C[C@@H](Oc1cc(-c2cnn(C(C)(C)C)c2)cc2nn(C)cc12)[C@H]1CNC(=O)C1 [Example 18, (4R)-4-[(1R)-1-[6-(1-tert-butylpyrazol-4-yl)-2-methyl-indazol-4-yl]oxyethyl]pyrrolidin-2-one]
0.0258 µM	> 50 µM	0.95 µM	> 10 µM	<23 % Qh	7.59	< 4.30	6.02	–	–	–	–	–	C[C@@H](Oc1cc(-c2ccc(N3CCN(C)CC3)cc2)cc2nn(C)cc12)[C@H]1CNC(=O)C1 [Example 26, (4R)-4-[(1R)-1-[2-methyl-6-[4-(4-methylpiperazin-1-yl)phenyl]indazol-4-yl]oxyethyl]pyrrolidin-2-one]
0.138 µM	> 50 µM	26.6 µM	> 10 µM	<23 % Qh	6.86	< 4.30	4.57	–	–	–	–	–	CC(C)Oc1ccc(-c2cc(O[C@H](C)[C@H]3CNC(=O)C3)c3cn(C)nc3c2)cn1 [Example 27, (4R)-4-[(1R)-1-[6-(6-isopropoxy-3-pyridyl)-2-methyl-indazol-4-yl]oxyethyl]pyrrolidin-2-one]
0.0335 µM	> 50 µM	3.69 µM	> 10 µM	<23 % Qh	7.47	< 4.30	5.43	–	–	–	–	–	C[C@@H](Oc1cc(-c2ccc3c(cnn3C)c2)cc2nn(C)cc12)[C@H]1CNC(=O)C1 [Example 28, (4R)-4-[(1R)-1-[2-methyl-6-(1-methylindazol-5-yl)indazol-4-yl]oxyethyl]pyrrolidin-2-one]
0.0172 µM	35.2 µM	2.39 µM	> 10 µM	<23 % Qh	7.76	4.45	5.62	–	–	–	–	–	C[C@@H](Oc1cc(-c2ccc3c(c2)c(N)nn3C)cc2nn(C)cc12)[C@H]1CNC(=O)C1 [Example 36, (4R)-4-[(1R)-1-[6-(3-amino-1-methyl-indazol-5-yl)-2-methyl-indazol-4-yl]oxyethyl]pyrrolidin-2-one]
0.164 µM	> 50 µM	42.8 µM	> 10 µM	<23 % Qh	6.79	< 4.30	4.37	–	–	–	–	–	C[C@@H](Oc1cc(-c2ccc(F)cn2)cc2nn(C)cc12)[C@H]1CNC(=O)C1 [Example 41, (4R)-4-[(1R)-1-[6-(5-fluoro-2-pyridyl)-2-methyl-indazol-4-yl]oxyethyl]pyrrolidin-2-one]
0.0167 µM	> 50 µM	0.55 µM	> 10 µM	<23 % Qh	7.78	< 4.30	6.26	–	–	–	–	–	C[C@@H](Oc1cc(-c2ccc(C3CCN(C)CC3)cc2)cc2nn(C)cc12)[C@H]1CNC(=O)C1 [Example 42, (4R)-4-[(1R)-1-[2-methyl-6-[4-(1-methyl-4-piperidyl)-phenyl]indazol-4-yl]oxyethyl]-pyrrolidin-2-one]
0.366 µM	49.8 µM	20.9 µM	> 10 µM	<23 % Qh	6.44	4.30	4.68	–	–	–	–	–	C[C@@H](Oc1nc(-c2ccc(C(F)F)nc2)cc2nn(C)cc12)[C@H]1CNC(=O)C1 [Example 51, (4R)-4-[(1R)-1-[6-[6-(difluoromethyl)-3-pyridyl]-2-methyl-pyrazolo[4,3-c]pyridin-4-yl]oxyethyl]pyrrolidin-2-one]
0.0413 µM	> 50 µM	> 50 µM	> 10 µM	<23 % Qh	7.38	< 4.30	< 4.30	–	–	–	–	–	COc1cc(-c2cc3nn(C)cc3c(O[C@H](C)[C@H]3CNC(=O)C3)n2)cc(OC)c1OC [Example 52, (4R)-4-[(1R)-1-[2-methyl-6-(3,4,5-trimethoxyphenyl)-pyrazolo[4,3-c]pyridin-4-yl]oxyethyl]pyrrolidin-2-one]
